Key:
[1] = tested on: EcR/RXR; test: Luciferase expression in transiently transfected 293T cells with and without 1 min illumination; format: cell-based; details: for Fold luciferase induction / Activity as inducing agent in the luciferase-based gene expression system (in words): 293T cells; for Fold luciferase induction: culture media/2% MeOH; for Activity as inducing agent in the luciferase-based gene expression system (in words): without light
From the text: Plasmid Description. The luciferase reporter (E/GRE)6TK81LUC consists of multimeric E/GRE binding sites from (E/GRE)4ΔMTVLuc linked to the minimal TK promoter in the pA3LUC reporter plasmid. The modified MMTV promoter from MMTVp206 that incorporates the 5′UTR of v-Ha-ras was inserted into a vector containing a modified ecdysone receptor VgEcR (a gift from R. Evans) to form MMTV-VgEcR.
Cell Culture, DNA Transfection, and Luciferase Assays. Cell culture, DNA transfection, and luciferase assays were performed as previously described (Wantanable et al., 1966). Briefly, 293-derived BOSC cells (293T) were seeded into individual wells of a 24 well plate and maintained in Dulbecco's modified Eagles medium with 10% fetal calf serum and 1% penicillin/streptomycin. Cells were transiently transfected with pVgEcR/RXRα and (E/GRE)6TKLUC via a standard calcium phosphate method. The media was changed after 14 hr and the cells treated with 10 μL of 5 mM β-ecdysone 1 (FIG. 1) in methanol (to furnish a 100 μM final concentration of ecdysteroid). Cells were either left un-illuminated or illuminated for 1 min using an Oriel 200 W Hg arc lamp (model 6283) with a 348 nm filter (Oriel, lot number 51260, 50% internal transmittance at 348 nm and cutoff at <325 nm) to remove short wavelength light and two IR filters to remove heat. Cells were subsequently lysed as previously described and the luciferase assay performed at room temperature using an Autolumat LB 953 (EG & G, Berthold). Luciferase content was measured by calculating the light emitted during 10 sec of the reaction. The values are expressed in arbitrary light units.
Light-Driven Luciferase Expression in Transiently Transfected 293T Cells. We employed a luciferase-based expression system to examine the biological activity of β-ecdysone and its alkylated analog 4. The 293T cell line was transiently transfected to constitutively express EcR/RXR and inducibly express (upon exposure to β-ecdysone) luciferase. Compound 4 was added to the transfected 293T cells, the cell culture subsequently illuminated, and luciferase activity assessed (Table 1). There is little observable luciferase activity with culture media alone. Exposure of the cells to the bioactive β-ecdysone 1 generates a nearly 90-fold induction of luciferase. By contrast, the caged analog 4 furnishes a slight 6-fold induction of activity over that of culture media alone. […] The latter is consistent with our observation that a 1 min photolysis time window converts approximately 60% of the caged derivative 4 into its bioactive counterpart 1. Finally, illumination in the absence of ligand fails to induce luciferase production.

[2] = Photolysis of caged β-ecdysone 4, HPLC analysis and ferrioxalate actinometry; format: physicochemical; details: ferrioxalate actinometry, HPLC peak areas
Experimental: Photolysis of Caged β-ecdysone 4. A 500 μL 100 μM solution of 4 in 2% methanol/98% water was placed in a 24-well culture plate. Photolysis was performed using an Oriel 200 W Hg arc lamp (model 6283) with a 348 nm filter (Oriel, lot number 51260; 50% internal transmittance at 348 nm and cutoff at 325 nm) to remove short wavelength light and an IR filter to remove heat. Aliquots of 10 μL were removed at different time points of photolysis and were analyzed by analytical HPLC (monitored at 242 nm) employing a Vydac C4 (250 mm×3.0 mm) column and using the following solvent system: a linear gradient from 95% A (water):5% B (acetonitrile) to 50% A (water):50% (acetonitrile) over 15 min followed by 50% A (water):50% B (acetonitrile) for 5 min with flow rate at 1 mL/min.
Photoconversion of Caged β-Ecdysone 4 to β-Ecdysone 1. A preliminary assessment of the light-induced conversion of the caged analog 4 to β-ecdysone 1 was performed using a 24-well plate system. […] Aliquots from the wells were subsequently analyzed by HPLC to assess formation of 1 (data not shown). […] The photochemical quantum yield (φ=0.034) was determined using ferrioxalate actinometry (Hatchard & Parker, 1956) according to the equation φ=ΔP/(I×t), where t is the irradiation time, ΔP is the amount of photolabile converted, and was determined using HPLC peak areas.

[3] = tested on: EcR/RXR; test: Time-dependent luciferase assays after photolysis, with or without washing out extracellular ligand; format: cell-based
Experimental: Time-dependent luciferase assays. 293T cells were split in a 24-well culture plate (Becton Dickinson Labware, lot #353047) and were transfected by a calcium phosphate method. The cells in 500 μL culture medium were incubated with either 100 μM caged β-ecdysone, 100 μM β-ecdysone, or absent an ecdysteroid ligand. After the cells were incubated with caged β-ecdysone for 16 hours, the medium was removed and washed with PBS once. A fresh medium free of ligand was then immediately added just prior to UV light exposure for 1 min. In the “Caged+hv” experiment, the caged β-ecdysone ligand remained in the medium and these cells were likewise illuminated for 1 min. Cells that were not exposed to ecdysteroid ligand were treated in an otherwise analogous fashion. The cells were then returned to the incubator for various time intervals. Incubation was terminated by treating cells with an extraction buffer (1% Triton X-100 and 1 mM DTT in GME). Luciferase activity was preformed as described above.
Cells were pre-incubated with the caged β-ecdysone 4 for 16 hr, illuminated for 1 min, and then lysed at various time points following photolysis. […] The 293T cell line was pre-incubated with 4 for 16 hr, the media subsequently removed, and the cells washed with PBS. Ecdysone-free media was then added, the cell culture incubated for various time points, and tested for luciferase activity. The gene expression kinetic profile is nearly identical for the two sets of experiments [(4+photolysis) versus (4+washing+photolysis)] during the first 5 hr, which is consistent with the notion that caged β-ecdysone 4 is intracellularly liberated (FIG. 3).
What is the time-dependence of β-ecdysone-induced luciferase expression? We addressed this question by pre-incubating 293T cells with the caged derivative 4 for 16 hr followed by illumination for 1 min. Cells were subsequently incubated for various time intervals, lysed, and luciferase activity assessed. […]

[4] = tested on: EcR/RXR; test: Immunodetection of intracellularly expressed luciferase, spot illumination; format: cell-based; details: 293T cells; for Luciferase expression by immunofluorescence, without illumination: 100 μM, 16 hr incubation, no light; for Luciferase expression by immunofluorescence after spot illumination: 4 washed out, spot illuminated (~0.25 mm^2) 10 sec, 6 hr incubation
Experimental: Immunodetection of Intracellularly Expressed Luciferase. 293T cells were transferred to the individual wells of a 24-well culture plate (Becton Dickinson Labware, lot #353047) and transfected as described above. The cells were then incubated with either 100 μM β-ecdysone or 100 μM caged β-ecdysone for 16 hr. The medium was removed and the cells washed once with PBS before addition of an ecdysteroid free medium. The surface of the pre-scored wells was spot illuminated (˜0.25 mm^2) for 10 sec on a light microscope using a 100 W Hg-Arc lamp through an Olympus UAPO 20×/0.40 objective. The cells were then incubated for 6 hr, fixed with 4% formaldehyde in PBS for 60 min, washed with PBS 3×5 min, permeabilized with 0.1% TritonX100 for 10 min, washed with PBS 3×5 min, and blocked with 1% normal donkey serum (Jackson ImmunoResearch catalog #017-000-121) in PBS for 45 min. The cells were subsequently exposed to 300 μL of anti-luciferase pAb (polyclonal goat antibody, Promega, lot #149040) at a concentration of 40 μg/mL in 1% donkey serum in PBS. After incubation for 2 hr at room temperature in a humidified chamber, the cells were washed with PBS 3×15 min and exposed to 300 μL of an Alexa Fluor 568-labeled rabbit anti-goat IgG (20 μg/mL in 1% donkey serum/PBS for 1 hr, Molecular Probes, catalog #A-11079). Unbound antibody was removed by washing with PBS 3×15 min and the cells treated with 300 μL of mounting medium (N-propyl gallate at 6 mg/mL in 1:1 glycerol:PBS). Images were taken using an Olympus IX-70 microscope equipped with a CCD camera.
Light-Driven Spatially-Discrete Luciferase Expression in Transiently Transfected 293T Cells. We examined whether the combination of 4 and spot illumination induces gene activation in a spatially discrete fashion. Transiently transfected 293T cells were incubated with 1 for 16 hr, fixed, permeabilized, exposed to a luciferase antibody, and stained with an Alexa-labeled secondary antibody. […] 293T cells were also exposed to 4, the media replaced with fresh media to remove extracellular 4, and spot illuminated (˜0.25 mm^2) for 10 sec. The cells were then returned to the incubator for 6 hr and subsequently analyzed for luciferase expression.
However, if photo-uncaged intracellular β-ecdysone does migrate to the extracellular environment then it is possible that sites distant from the region of illumination could undergo unintentional gene activation as well. On the other hand, given the small intracellular volume of a typical cell (˜1 pL) it is likely that any uncaged β-ecdysone that escapes from its intracellular locale will be too dilute to effect changes in gene expression profiles at remote sites. We explicitly addressed this possibility by examining spatially-discrete gene activation using spot illumination of cultured 293T cells. Luciferase expression in fixed and permeabilized cells was visually identified via the coupled use of a luciferase antibody and a secondary Alexa-labeled antibody. […] Luciferase expression is not observed in the absence of β-ecdysone (data not shown) nor in the presence of caged β-ecdysone without light (see below). […] Regions outside of the zone of illumination fail to display luciferase expression.

[5] = tested on: ecdysone-inducible gene expression system; details: cell-based systems; No et al., 1996; Albanese et al., 2000; cited from earlier work
[6] = 100 μM ecdysteroid, not illuminated, versus culture media alone
[7] = 293T cells pre-incubated 16 hr with 4, illuminated 1 min

Compound: COc1cc(COC2CC3(C)C(CC2O)C(=O)C=C2C3CCC3(C)C(C(C)(O)C(O)CCC(C)(C)O)CCC23O)c([N+](=O)[O-])cc1OC (stereo not drawn) [caged β-ecdysone 4]
- Luciferase expression relative to that displayed by β-ecdysone 1 ([1]; 293T cells treated with 4, 1 min photolysis): approximately 60%
- Fold luciferase induction [1, 6]: 6 fold
- Fold luciferase induction ([1]; 100 μM ecdysteroid, not illuminated, versus culture media alone, listed as caged β-ecdysome 4): 6.5 ± 0.1 fold
- Fold luciferase induction ([1]; 100 μM, 1 min hν (348 nm filter, Hg arc lamp)): 50 ± 4 fold
- Activity as inducing agent in the luciferase-based gene expression system (in words) [1]: virtually inactive
- Activity as inducing agent in the luciferase-based gene expression system (in words) ([1]; listed as caged ecdysteroid): nearly inactive
- Photochemical quantum yield φ [2]: 0.034
- Luciferase activity relative to maximal activity displayed by β-ecdysone ([3]; 4 + washing (extracellular 4 removed) + 1 min photolysis): 50%
- Post-illumination time at which minimal luciferase activity was first observed [3, 7]: 4 h
- Time of maximal gene (luciferase) expression after photolysis [3, 7]: 16 h
- Luciferase expression by immunofluorescence, without illumination [4]: failed to exhibit detectable luciferase expression
- Luciferase expression by immunofluorescence after spot illumination [4]: spatially discrete luciferase expression is observed
- Luciferase expression by immunofluorescence after spot illumination ([4]; listed as 4): Only those regions exposed to UV light display luciferase production

Compound: CC(C)CC[C@@H](O)[C@](C)(O)[C@H]1CC[C@@]2(O)C3=CC(=O)[C@]4(O)C[C@@H](O)[C@@H](O)C[C@]4(C)[C@H]3[C@H](O)C[C@]12C [muristerone 6, muristerone]
- Activity relative to β-ecdysone [5]: 1,000 times

Compound: CC(C)CC[C@@H](O)[C@](C)(O)[C@H]1CC[C@@]2(O)C3=CC(=O)[C@@H]4C[C@@H](O)[C@@H](O)C[C@]4(C)[C@H]3CC[C@]12C [ponasterone A 7, ponasterone A]
- Activity relative to β-ecdysone [5]: 1,000 times

Compound: CC(C)(O)CC[C@@H](O)[C@](C)(O)[C@H]1CC[C@@]2(O)C3=CC(=O)[C@@H]4C[C@@H](O)[C@@H](O)C[C@]4(C)[C@H]3CC[C@]12C [β-ecdysone 1, β-ecdysone, reference compound]
- Fold luciferase induction [1, 6]: 88 ± 9 fold
- Fold luciferase induction ([1]; 100 μM ecdysteroid, not illuminated, versus culture media alone, listed as β-ecdysone): ~100 fold
- Luciferase expression by immunofluorescence, without illumination [4]: global luciferase expression throughout the cell culture
- Luciferase expression by immunofluorescence, without illumination ([4]; listed as 1): luciferase expression (20% transfection efficiency) was observed throughout the general cell population

— patent US8076318B2, “Caged ligands and uses thereof” (priority 2002, dated 2011)
